One block for each compound: values may come before it. Calls of active or inactive are those of the source. The calls are words filed in the database; no cut-off is given here.
Assays:
[1] = tested on: UBR/Epidermal growth factor receptor (Homo sapiens), P00533+Q5T4S7+Q8IWV7+Q8IWV8 [L858R,T790M]; experiment: PROTAC (AATac) activity at UBR1/2/4/EGFR L858R/T790M mutant in human NCI-H1975 cells assessed as protein degradation upto 20 uM incubated for 72 hrs by immunoblot analysis; type: cell-based
A549 = experiment: Effect on wild-type EGFR expression in human A549 cells upto 20 uM incubated for 72 hrs by immunoblot analysis; type: functional, cell-based
NCI-H1299 = experiment: Effect on wild-type EGFR expression in human NCI-H1299 cells upto 20 uM incubated for 72 hrs by immunoblot analysis; type: functional, cell-based
PC-9 = experiment: Effect on EGFR del19 mutant expression in human PC-9 cells upto 20 uM incubated for 72 hrs by immunoblot analysis; type: functional, cell-based
[2] = target: T1, UBR/ALK tyrosine kinase receptor/Echinoderm microtubule-associated protein-like 4 (Homo sapiens) (UniProt Q9UM73+Q9HC35+Q5T4S7+Q8IWV7+Q8IWV8); experiment: PROTAC (AATac) activity at UBR1/2/4/EML4-ALK in human NCI-H3122 cells assessed as protein degradation upto 20 uM incubated for 72 hrs by immunoblot analysis; type: cell-based
[3] = target: UBR/ALK tyrosine kinase receptor/Echinoderm microtubule-associated protein-like 4; experiment: PROTAC (AATac) activity at UBR1/2/4/EML4-ALK in human NCI-H3122 cells assessed as protein degradation incubated for 48 to 72 hrs by immunoblot analysis; type: cell-based
[4] = target: T1, UBR/ALK tyrosine kinase receptor/Echinoderm microtubule-associated protein-like 4 (Homo sapiens); experiment: PROTAC (AATac) activity at UBR1/2/4/EML4-ALK in human NCI-H3122 cells assessed as protein degradation at 10 uM incubated for 48 to 72 hrs by immunoblot analysis relative to control; type: cell-based; conditions: time 48-72 hrs
[5] = target: UBR/Epidermal growth factor receptor (Homo sapiens, UniProt P00533+Q5T4S7+Q8IWV7+Q8IWV8, T790M/L858R); experiment: PROTAC (AATac) activity at UBR1/2/4/EGFR L858R/T790M mutant in human NCI-H1975 cells assessed as protein degradation incubated for 48 to 72 hrs by immunoblot analysis; type: cell-based
[6] = tested on: UBR/Epidermal growth factor receptor (Homo sapiens), P00533+Q5T4S7+Q8IWV7+Q8IWV8 [L858R,T790M]; experiment: PROTAC (AATac) activity at UBR1/2/4/EGFR L858R/T790M mutant in human NCI-H1975 cells assessed as protein degradation at 20 uM incubated for 48 to 72 hrs by immunoblot analysis relative to control; type: cell-based; conditions: time 48-72 hrs
NCI-H3122 [7] = experiment: Inhibition of cell viability in human NCI-H3122 cells incubated for 48 to 72 hrs by CCK8 assay
NCI-H1975 = experiment: Inhibition of cell viability in human NCI-H1975 cells incubated for 48 to 72 hrs by CCK8 assay
[8] = target: T1, UBR/ALK tyrosine kinase receptor/Echinoderm microtubule-associated protein-like 4 (Homo sapiens); experiment: PROTAC (AATac) activity at UBR1/2/4/EML4-ALK in human NCI-H3122 cells assessed as protein degradation at 10 uM incubated for approximately 3 hrs by immunoblot analysis; type: cell-based
[9] = tested on: UBR/Epidermal growth factor receptor (Homo sapiens), P00533+Q5T4S7+Q8IWV7+Q8IWV8 [L858R,T790M]; experiment: PROTAC (AATac) activity at UBR1/2/4/EGFR L858R/T790M mutant in human NCI-H1975 cells assessed as protein degradation at 20 uM incubated for 48 hrs by immunoblot analysis; type: cell-based
NCI-H3122 [10] = experiment: Effect on EML4-ALK expression in human NCI-H3122 cells upto 20 uM incubated for 72 hrs by immunoblot analysis; type: functional, cell-based
[11] = tested on: Epidermal growth factor receptor (Homo sapiens), P00533 [L858R,T790M]; experiment: Induction of EGFR L858R/T790M mutant degradation in human NCI-H1975 cells harboring sgGID4 at 1 to 20 uM incubated for 24 hrs by immunoblot analysis; type: cell-based; conditions: dose 1-20 µM
[12] = tested on: Epidermal growth factor receptor (Homo sapiens), P00533 [L858R,T790M]; experiment: Inhibition of EGFR L858R/T790M mutant phosphorylation in human NCI-H1975 cells harboring sgGID4 at 1 to 20 uM incubated for 24 hrs by immunoblot analysis; type: cell-based; conditions: dose 1-20 µM
NCI-H3122 [13] = experiment: Inhibition of EML4-ALK phosphorylation in human NCI-H3122 cells at 2.5 uM incubated for 48 hrs followed by compound removal and incubation in drug-free medium for 12 to 72 hrs by immunoblot analysis; type: cell-based
[14] = tested on: Glucose-induced degradation protein 4 homolog/Epidermal growth factor receptor (Homo sapiens), P00533+Q8IVV7 [L858R,T790M]; experiment: Inhibition of EGFR L858R/T790M mutant phosphorylation in human NCI-H1975 cells at 20 uM incubated for 72 hrs followed by compound removal and incubation in drug-free medium for 12 to 72 hrs by immunoblot analysis; type: cell-based
[15] = tested on: Protein zyg-11 homolog B/Protein zer-1 homolog/Epidermal growth factor receptor (Homo sapiens), P00533+Q9C0D3+Q7Z7L7 [L858R,T790M]; experiment: PROTAC (AATac) activity at ZYG11B/ZER1/EGFR L858R/T790M mutant in human NCI-H1975 cells assessed as protein degradation upto 20 uM incubated for 72 hrs by immunoblot analysis; type: cell-based
ZYG11B/ZER1/EML4-ALK [16] = target: T2, ZYG11B/ZER1/EML4-ALK (Homo sapiens, UniProt Q9UM73+Q9HC35+Q9C0D3+Q7Z7L7); experiment: PROTAC (AATac) activity at ZYG11B/ZER1/EML4-ALK in human NCI-H3122 cells assessed as protein degradation upto 20 uM incubated for 72 hrs by immunoblot analysis; type: cell-based
ZYG11B/ZER1/EML4-ALK [17] = target: T2, ZYG11B/ZER1/EML4-ALK; experiment: PROTAC (AATac) activity at ZYG11B/ZER1/EML4-ALK in human NCI-H3122 cells assessed as protein degradation incubated for 48 to 72 hrs by immunoblot analysis; type: cell-based
ZYG11B/ZER1/EML4-ALK [18] = target: T2, ZYG11B/ZER1/EML4-ALK; experiment: PROTAC (AATac) activity at ZYG11B/ZER1/EML4-ALK in human NCI-H3122 cells assessed as protein degradation at 10 uM incubated for 48 to 72 hrs by immunoblot analysis relative to control; type: cell-based; conditions: time 48-72 hrs
[19] = target: Protein zyg-11 homolog B/Protein zer-1 homolog/Epidermal growth factor receptor (Homo sapiens, UniProt P00533+Q9C0D3+Q7Z7L7, T790M/L858R); experiment: PROTAC (AATac) activity at ZYG11B/ZER1/EGFR L858R/T790M mutant in human NCI-H1975 cells assessed as protein degradation incubated for 48 to 72 hrs by immunoblot analysis; type: cell-based
[20] = tested on: Protein zyg-11 homolog B/Protein zer-1 homolog/Epidermal growth factor receptor (Homo sapiens), P00533+Q9C0D3+Q7Z7L7 [L858R,T790M]; experiment: PROTAC (AATac) activity at ZYG11B/ZER1/EGFR L858R/T790M mutant in human NCI-H1975 cells assessed as protein degradation at 20 uM incubated for 48 to 72 hrs by immunoblot analysis relative to control; type: cell-based; conditions: time 48-72 hrs
ZYG11B/ZER1/EML4-ALK [21] = target: T2, ZYG11B/ZER1/EML4-ALK; experiment: PROTAC (AATac) activity at ZYG11B/ZER1/EML4-ALK in human NCI-H3122 cells assessed as protein degradation at 10 uM incubated for […] by immunoblot analysis; type: cell-based
[22] = tested on: Protein zyg-11 homolog B/Protein zer-1 homolog/Epidermal growth factor receptor (Homo sapiens), P00533+Q9C0D3+Q7Z7L7 [L858R,T790M]; experiment: PROTAC (AATac) activity at ZYG11B/ZER1/EGFR L858R/T790M mutant in human NCI-H1975 cells assessed as protein degradation at 20 uM incubated for 24 hrs by immunoblot analysis; type: cell-based
ZYG11B/ZER1/EML4-ALK [23] = target: T2, ZYG11B/ZER1/EML4-ALK; experiment: PROTAC (AATac) activity at ZYG11B/ZER1/EML4-ALK in human NCI-H3122 cells harboring shZYG11B assessed as protein degradation incubated for 24 hrs by immunoblot analysis; type: cell-based
[24] = tested on: Protein zyg-11 homolog B/Protein zer-1 homolog/Epidermal growth factor receptor (Homo sapiens), P00533+Q9C0D3+Q7Z7L7 [L858R,T790M]; experiment: PROTAC (AATac) activity at ZYG11B/ZER1/EGFR L858R/T790M mutant in human NCI-H1975 cells harboring shZYG11B assessed as protein degradation incubated for 72 hrs by immunoblot analysis; type: cell-based
ZYG11B/ZER1/EML4-ALK [25] = target: T2, ZYG11B/ZER1/EML4-ALK; experiment: PROTAC (AATac) activity at ZYG11B/ZER1/EML4-ALK in human NCI-H3122 cells harboring shZER1 assessed as protein degradation incubated for 24 hrs by immunoblot analysis; type: cell-based
[26] = tested on: Protein zyg-11 homolog B/Protein zer-1 homolog/Epidermal growth factor receptor (Homo sapiens), P00533+Q9C0D3+Q7Z7L7 [L858R,T790M]; experiment: PROTAC (AATac) activity at ZYG11B/ZER1/EGFR L858R/T790M mutant in human NCI-H1975 cells harboring shZER1 assessed as protein degradation incubated for 72 hrs by immunoblot analysis; type: cell-based
NCI-H3122 [27] = experiment: Antitumor activity against human NCI-H3122 cells xenografted in nude mouse assessed as reduction in ALK level at 10 mg/kg, ip measured after 24 hrs by immunoblot analysis; type: functional, organism-based

Compound: COc1cc(N2CCN(C(=O)CCOCCOCCOCCNC(=O)[C@@H](N)CCCCN)CC2)ccc1Nc1ncc(Cl)c(Nc2ccccc2P(C)(C)=O)n1
Activity [1]: Active
Activity (A549): inactive
Activity (NCI-H1299): inactive
Activity (PC-9): inactive
Activity [2]: Active
DC50 [3]: 1.32 µM
Emax [4]: 91%
DC50 [5]: 19.7 µM
Activity [6]: 52%
IC50 (NCI-H3122 [7]): 5.3 µM
IC50 (NCI-H1975): 18.6 µM
Activity [8]: Active
Activity [9]: Active

Compound: COc1cc(N2CCN(C(=O)CCOCCOCCOCCNC(=O)[C@@H](N)CCCN)CC2)ccc1Nc1ncc(Cl)c(Nc2ccccc2P(C)(C)=O)n1
Activity (NCI-H3122 [10]): inactive

IC50 (NCI-H3122 [7]): 0.3 µM
IC50 (NCI-H1975): 0.88 µM
Activity [11]: inactive
Activity [12]: inactive
inhibition [14]: inactive
Compound: COc1cc(N2CCNCC2)ccc1Nc1ncc(Cl)c(Nc2ccccc2P(C)(C)=O)n1
Activity (NCI-H3122 [10]): inactive
inhibition (NCI-H3122 [13]): inactive

Compound: COc1cc(N2CCN(C(=O)CCOCCOCCOCCNC(=O)CN)CC2)ccc1Nc1ncc(Cl)c(Nc2ccccc2P(C)(C)=O)n1
Activity [15]: Active
Activity (A549): inactive
Activity (NCI-H1299): inactive
Activity (PC-9): inactive
Activity (ZYG11B/ZER1/EML4-ALK [16]): Active
DC50 (ZYG11B/ZER1/EML4-ALK [17]): 0.5 µM
Emax (ZYG11B/ZER1/EML4-ALK [18]): 98%
DC50 [19]: 20.1 µM
Activity [20]: 43%
IC50 (NCI-H3122 [7]): 0.84 µM
IC50 (NCI-H1975): 20.7 µM
Activity (ZYG11B/ZER1/EML4-ALK [21]): Active
Activity [22]: Active
Activity (ZYG11B/ZER1/EML4-ALK [23]): inactive
Activity [24]: inactive
Activity (ZYG11B/ZER1/EML4-ALK [25]): inactive
Activity [26]: inactive
Activity (NCI-H3122 [27]): Active

Source: ChEMBL document CHEMBL5550219, “Distinct Amino Acid-Based PROTACs Target Oncogenic Kinases for Degradation in Non-Small Cell Lung Cancer (NSCLC)” (J Med Chem, 2024)
